Legend:
NdmA-His6 = molecular target: T1, NdmA-His6 (Pseudomonas putida, UniProt H9N289); test: Kinetic parameters of NdmA-His6 with His6-NdmD; type: biochemical, Pseudomonas putida CBB5
T1 sequence (H9N289 1-351): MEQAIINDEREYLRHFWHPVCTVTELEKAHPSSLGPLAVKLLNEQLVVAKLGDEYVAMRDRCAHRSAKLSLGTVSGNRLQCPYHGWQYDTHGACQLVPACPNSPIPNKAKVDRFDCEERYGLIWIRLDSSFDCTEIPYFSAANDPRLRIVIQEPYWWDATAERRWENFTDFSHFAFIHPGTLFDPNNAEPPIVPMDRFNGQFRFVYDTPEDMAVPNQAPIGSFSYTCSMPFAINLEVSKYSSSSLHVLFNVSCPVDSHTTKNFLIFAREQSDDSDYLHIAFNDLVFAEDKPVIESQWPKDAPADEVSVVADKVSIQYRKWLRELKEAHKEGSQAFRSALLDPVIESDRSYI
Procedure: (§1) Methylxanthine N-demethylase activity assay contained, in 1-ml total volume, 0.5 mM methylxanthine, 1 mM NADH, 50 μM Fe(NH4)2(SO4)2, and an appropriate amount of NdmA-His6 or NdmB-His6 (7.4 μg-2.5 mg protein depending on substrate specificity) in 50 mM KPi buffer (pH 7.5). Approximately 4 U of partially purified reductase, prepared as described previously (Summers et al., 2011) or 59 U of purified His6-NdmD was added to reaction mixture. Catalase from bovine liver (4,000 U) was also added to reactions containing His6-NdmD. The reaction mixture was incubated at 30° C. with 300 rpm shaking on an incubating microplate shaker (VWR, Radnor, Pa.). Periodically, a small aliquot was sampled from the reaction mixture and mixed with equal volume of acetonitrile for quantifying concentrations of methylxanthines and N-demethylated products by HPLC. One unit of N-demethylase activity was defined as the consumption of one […] methylxanthine per minute.
(§2) Apparent kinetic parameters of NdmA-His6 and NdmB-His6 were determined by measuring the initial rate of disappearance (vo) of methylxanthines in 50 mM KPi buffer (pH 7.5) at 30° C. The initial substrate concentrations ([S]) used in these experiments were from 25 to 500 μM. Substrates were incubated with His6-NdmD plus either NdmA-His6 or NdmB-His6 under standard conditions for 15 minutes. At 1, 5, 10, and 15 minutes, samples were removed from the reaction mixtures to quantitate substrate concentrations by HPLC. Plots of substrate concentrations against time were used to determine the initial rates of disappearance of substrates which were linear over 15 minutes. The apparent kinetic parameters were determined from Michaelis-Menten plots of vo against [S] fitted with the equation

NdmB-His6 = NdmB-His6 (Pseudomonas putida, UniProt H9N290); test: Kinetic parameters of NdmB-His6 with His6-NdmD; type: biochemical, Pseudomonas putida CBB5
Procedure: as §1, §2

NdmC = test: N-demethylation by NdmC fraction co-purified with reductase; type: biochemical, Pseudomonas putida CBB5
Excerpt: This activity was neither associated with NdmA nor with NdmB. […] Cloning of NdmC has proven difficult; nevertheless based on the fact that purified His6-NdmD had no activity on 7-methylxanthine, we annotate orf 8 as aanother RO with highly specific N-7 demthylase activity.

His6-NdmD = His6-NdmD (Pseudomonas putida, UniProt H9N291); test: N-demethylation by purified His6-NdmD alone; type: biochemical, Pseudomonas putida CBB5
Procedure: as §1

[1] = tested on: Ndm (methylxanthine N-demethylase) with Ccr reductase
Ccr = Ccr (Pseudomonas putida, UniProt H9N291); test: NAD(P)H:cytochrome c oxidoreductase (Ccr) activity; type: biochemical, Pseudomonas putida CBB5
Procedure: NADH:cytochrome c oxidoreductase (cytochrome c reductase, Ccr) activity was determined as described by Ueda et al. (1972). A typical 1-mL reaction contained 300 μM NADH, 87 μM bovine cytochrome c (type III; Sigma), and 1-20 μg CBB5 protein (depending on purity) in 50 mM KPi buffer. The activity was determined by monitoring the increase in absorbance at 550 nm due to reduction of […] cytochrome c at 30° C. An extinction coefficient of 21,000 M^−1 cm^−1 for reduced minus oxidized cytochrome c was used for quantitating the activity. One unit of activity was defined as one μmol of cytochrome c reduced per minute.

[2] = molecular target: T2, Ndm, two-subunit N-demethylase component purified from Pseudomonas putida CBB5 (UniProt H9N289)
T2 sequence 1: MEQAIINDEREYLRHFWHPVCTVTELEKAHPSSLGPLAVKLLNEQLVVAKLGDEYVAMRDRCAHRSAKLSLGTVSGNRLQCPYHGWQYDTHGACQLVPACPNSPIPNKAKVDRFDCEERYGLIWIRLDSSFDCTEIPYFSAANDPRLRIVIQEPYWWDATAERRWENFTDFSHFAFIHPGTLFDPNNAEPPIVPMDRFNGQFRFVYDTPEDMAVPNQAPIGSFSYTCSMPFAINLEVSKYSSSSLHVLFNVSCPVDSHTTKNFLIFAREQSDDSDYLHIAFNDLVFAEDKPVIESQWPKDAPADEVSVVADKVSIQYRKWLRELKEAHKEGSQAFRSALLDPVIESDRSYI
T2 sequence 2: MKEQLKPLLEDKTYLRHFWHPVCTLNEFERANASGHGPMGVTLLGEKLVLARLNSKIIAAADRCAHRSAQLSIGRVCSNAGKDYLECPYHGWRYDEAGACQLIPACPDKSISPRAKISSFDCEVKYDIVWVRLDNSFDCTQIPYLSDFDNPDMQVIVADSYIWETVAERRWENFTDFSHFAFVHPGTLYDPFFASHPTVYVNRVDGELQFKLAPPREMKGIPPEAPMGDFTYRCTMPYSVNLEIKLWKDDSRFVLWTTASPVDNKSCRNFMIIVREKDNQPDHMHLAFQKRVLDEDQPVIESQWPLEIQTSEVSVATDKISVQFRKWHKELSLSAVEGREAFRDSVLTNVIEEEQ

[3] = substrate: Cn1c(=O)c2[nH]cnc2n(C)c1=O; test: Kinetic parameters of NdmA-His6 with His6-NdmD; type: biochemical, Pseudomonas putida CBB5; details: other: NdmA-His6 plus His6-NdmD, pH 7.5, 30° C.
Procedure: as §1
Apparent kinetic parameters of NdmA-His6 and NdmB-His6 were determined by measuring the initial rate of disappearance (vo) of methylxanthines in 50 mM KPi buffer (pH 7.5) at 30° C. […] At 1, 5, 10, and 15 minutes, samples were removed from the reaction mixtures to quantitate substrate concentrations by HPLC. […] The apparent kinetic parameters were determined from Michaelis-Menten plots of vo against [S] fitted with the equation

[4] = molecular target: T3, NdmB, 35 kDa subunit of N-demethylase Ndm purified from Pseudomonas putida CBB5 (Pseudomonas putida CBB5, UniProt H9N290 1-355); test: gel filtration of purified native Ndm (single symmetric peak, about 240 kDa), fractions checked by SDS-PAGE
T3 construct: Native protein purified from CBB5; Rieske [2Fe-2S] non-heme iron oxygenase; also called 35 kDa-protein
T3 sequence (looked up): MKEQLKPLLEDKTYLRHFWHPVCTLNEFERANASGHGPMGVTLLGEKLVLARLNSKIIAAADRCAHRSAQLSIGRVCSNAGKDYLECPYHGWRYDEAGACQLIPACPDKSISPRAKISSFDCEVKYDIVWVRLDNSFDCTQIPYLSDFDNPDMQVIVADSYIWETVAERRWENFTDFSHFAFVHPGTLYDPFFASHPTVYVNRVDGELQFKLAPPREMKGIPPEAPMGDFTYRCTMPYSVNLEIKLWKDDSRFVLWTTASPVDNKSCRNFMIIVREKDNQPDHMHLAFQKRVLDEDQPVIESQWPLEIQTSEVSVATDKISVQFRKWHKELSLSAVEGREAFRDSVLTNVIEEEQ

NdmA-His6, H9N289 = molecular target: T4, NdmA-His6, H9N289
T4 chain: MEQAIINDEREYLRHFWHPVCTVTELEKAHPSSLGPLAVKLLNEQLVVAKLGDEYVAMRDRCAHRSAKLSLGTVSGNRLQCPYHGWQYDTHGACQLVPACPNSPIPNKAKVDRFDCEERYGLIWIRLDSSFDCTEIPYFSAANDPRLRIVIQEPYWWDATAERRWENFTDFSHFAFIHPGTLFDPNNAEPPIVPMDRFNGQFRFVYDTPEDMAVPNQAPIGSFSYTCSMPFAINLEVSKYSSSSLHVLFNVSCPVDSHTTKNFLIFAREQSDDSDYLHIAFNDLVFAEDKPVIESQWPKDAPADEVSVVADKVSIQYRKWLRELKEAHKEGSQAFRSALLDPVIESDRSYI

NdmB-His6, H9N290 = molecular target: T5, NdmB-His6, H9N290
T5 chain: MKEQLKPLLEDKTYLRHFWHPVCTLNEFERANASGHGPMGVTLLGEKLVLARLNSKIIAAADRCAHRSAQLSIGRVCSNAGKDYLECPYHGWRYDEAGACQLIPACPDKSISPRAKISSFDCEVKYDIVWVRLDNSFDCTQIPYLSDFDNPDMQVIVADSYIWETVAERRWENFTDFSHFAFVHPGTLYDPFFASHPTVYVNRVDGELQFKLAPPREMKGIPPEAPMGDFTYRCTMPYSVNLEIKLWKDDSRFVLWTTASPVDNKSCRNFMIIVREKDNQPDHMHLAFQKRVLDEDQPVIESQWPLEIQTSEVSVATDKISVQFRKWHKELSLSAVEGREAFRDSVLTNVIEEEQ

Cn1cnc2[nH]c(=O)[nH]c(=O)c21 [7-Methylxanthine, 7-methylxanthine]
N-demethylation activity of NdmA (NdmA-His6): inactive
Km (NdmA-His6; NdmA-His6 plus His6-NdmD, pH 7.5, 30° C.): ∞
N-demethylation activity of NdmB (NdmB-His6): no activity
Km (NdmB-His6; NdmB-His6 plus His6-NdmD, pH 7.5, 30° C.): ∞
N-demethylation by NdmC/reductase fraction (NdmC): specifically N-demethylated
activity of purified His6-NdmD (His6-NdmD): no activity
product formed from paraxanthine ([1]; 90 minutes, 7.4 mU (7.4 units) of Ndm): 126.9 ± 6.4 µM
N-demethylation product present ([1]; from paraxanthine, after 13 minutes): Approximately 39.9 μM
Km ([1]; read-out: apparent KM, saturating Ccr, 50 μM Fe2+, 30° C., 50 mM KPi pH 7.5): 63.8 ± 7.5 µM
apparent kcat ([1]; saturating Ccr, 50 μM Fe2+, 30° C., 50 mM KPi pH 7.5): 1.58 ± 0.05 s⁻¹

NC(=O)C1=CN([C@@H]2O[C@H](COP(=O)(O)OP(=O)(O)OC[C@H]3O[C@@H](n4cnc5c(N)ncnc54)[C@H](OP(=O)(O)O)[C@@H]3O)[C@@H](O)[C@H]2O)C=CC1 [NADPH]
Ccr activity relative to that with NADH (Ccr): 22%

Ccr, partially purified cytochrome c reductase component of Pseudomonas putida CBB5
N-demethylase activity [2]: No N-demethylase activity was observed when purified Ndm was assayed without the Ccr fraction

B1: NdmA, 40 kDa subunit of N-demethylase Ndm purified from Pseudomonas putida CBB5 (enzyme, UniProt H9N289 1-351, looked up)
chain: MEQAIINDEREYLRHFWHPVCTVTELEKAHPSSLGPLAVKLLNEQLVVAKLGDEYVAMRDRCAHRSAKLSLGTVSGNRLQCPYHGWQYDTHGACQLVPACPNSPIPNKAKVDRFDCEERYGLIWIRLDSSFDCTEIPYFSAANDPRLRIVIQEPYWWDATAERRWENFTDFSHFAFIHPGTLFDPNNAEPPIVPMDRFNGQFRFVYDTPEDMAVPNQAPIGSFSYTCSMPFAINLEVSKYSSSSLHVLFNVSCPVDSHTTKNFLIFAREQSDDSDYLHIAFNDLVFAEDKPVIESQWPKDAPADEVSVVADKVSIQYRKWLRELKEAHKEGSQAFRSALLDPVIESDRSYI
notes: Native protein purified from CBB5; Rieske [2Fe-2S] non-heme iron oxygenase; also called 40 kDa-protein
Km [3]: 91. μM
binding result [4]: binds

B2: His6-NdmD (protein)
chain: HHHHHHSSGLVPRGSHMNKLDVNQWFPIATTEDLPKRHVFHATLLGQEMAIWRDDSGSVNAWENRCPHRGLRLTLGANTGNELRCQYHGWTYESGTGGCTFVPAHRDAPPPNAARVNTFPVREKHGFIWTTLGQPPGEPISILDDAQLVNAVKTNLHSVVIDADIDGVVSVLRQNLSAFIDVFGAASAEDLHLKSMLQDRGILVTRSGSIAIHFYMQRSTISKCVVHAQVLTPGRPGYELQKNYSYAMNVIRRAAEAVATDLISITDISDQTIEKLEVVRENMTKAPPTHYICEVVTRTQETGDINSYWLKPIGYPLPAFSPGMHISITTPEGSIRQYSLVNGPDERESFIIGVKKEIQSRGGSRSMHEDVKVGTQLKVTLPRNGFPLVQTRKHPILVAGGIGITPILCMAQALDQQGSSYEIHYFARAFEHVPFQDRLTALGDRLNVHLGLGPDETRAKLPDIMEIHNAQDVDVYTCGPQPMIETVSAVALAHGIAEESIRFEFFSKKNDVPVSDEEYEVELKKTGQIFTVSPGSTLLQACLDNDVRIEASCEQGVCGTCITPVVSGDLEHHDTYLSKKERESGKWIMPCVSRCKSKKIVLDL
N-demethylation of caffeine to theobromine (HPLC) (NdmA-His6, H9N289): when NdmA-His6 was incubated with His6-NdmD, caffeine, NADH, and exogenous Fe^2+, caffeine was stoichiometrically demethylated at N1 to theobromine
N-demethylation of theobromine to 7-methylxanthine (HPLC) (NdmB-His6, H9N290): NdmB-His6 with His6-NdmD, theobromine, NADH, and Fe^2+ resulted in stoichiometric demethylation at N3 of theobromine to 7-methylxanthine

Reference: patent US20150184166A1 (Uinversity of Iowa Research Foundation, priority 2012, published 2015)
